Measured values published in ChEMBL document CHEMBL1138478, “Application of a proteolysis/mass spectrometry method for investigating the effects of inhibitors on hydroxylase structure” (J Med Chem, 2009).
pIC50: −log10 of the molar value.

Experiment: Inhibition of human recombinant PHD2 (181-426) expressed in Escherichia coli BL21 (DE3) by TR-FRET assay

Row | pIC50 | SMILES
1 | 4.72 | O=C(O)/C=C/C(=O)O [FUMARIC ACID]
2 | 5.72 | O=C(O)c1ccnc(C(=O)O)c1
